This is an account of results in ChEMBL document CHEMBL1148761, “2-aroylindoles and 2-aroylbenzofurans with N-hydroxyacrylamide substructures as a novel series of rationally designed histone deacetylase inhibitors” (J Med Chem, 2007).

One assay deals with Histone deacetylase 1 (Homo sapiens, UniProt Q13547).
Assay [1] deals with Histone deacetylase. In words: Inhibition of HDAC in HeLa cells assessed as induction of human histone H3 hyperacetylation. It counts as cell-based.
The target of assay [2] is Histone deacetylase. As to the kind of experiment: Inhibition of HDAC in HeLa cells. Type of assay: cell-based, Homo sapiens.
The subject of a further assay is HeLa. In words: Cytotoxicity against HeLa cells. The following applies: Homo sapiens. Type of assay: functional, cell-based.
Another assay deals with SK-OV-3. In words: Cytotoxicity against human SK-OV-3 cells. Type of assay: functional, cell-based.
Another assay deals with SAOS-2. As to the kind of experiment: Cytotoxicity against human Saos2 cells. Type of assay: functional, cell-based.
For a further assay, the system named is MDA-MB-231. As to the kind of experiment: Cytotoxicity against human MDA-MB-231cells. It counts as functional, cell-based.
The test system of assay [3] is A549. In words: Induction of human histone H3 hyperacetylation in A549 cells at 1 to 3 uM. Type of assay: functional, cell-based.
The next assay concerns 549. In words: Inhibition of histone-H3S phosphorylation in […] cells at 10 uM. Type of assay: cell-based.
For a further assay, the system named is NCI. In words: Cytotoxicity against human NCI H69 cells. Type of assay: functional, cell-based.
For a further assay, the system named is ASPC1. As to the kind of experiment: Cytotoxicity against human AsPC1 cells. It counts as functional, cell-based.
The nature of assay [4]: Cytotoxicity against human proliferating RKOp21 cells. Type of assay: functional, cell-based.
The subject of a further assay is A2780. In words: Cytotoxicity against human A2780 cells. Type of assay: functional, cell-based.
Assay [5] deals with CCRF-CEM. As to the kind of experiment: Cytotoxicity against vincristine resistant human CCRF-CEM cells. Type of assay: functional, cell-based.
Another assay concerns NCI-H460. As to the kind of experiment: Cytotoxicity against human NCI H460 cells. It counts as functional, cell-based.
A further assay concerns K562. In words: Cytotoxicity against human K562 cells. Type of assay: functional, cell-based.
In assay [6] the test system is CCRF-CEM. In words: Cytotoxicity against human CCRF-CEM cells. It counts as functional, cell-based.
A short description of assay [7]: Cytotoxicity against human non-proliferating RKOp21 cells. It counts as functional, cell-based.
Assay [8] deals with A549. As to the kind of experiment: Induction of apoptosis in A549 cells at 10 uM. It counts as functional, cell-based. As to conditions: Homo sapiens.
Another assay deals with Histone deacetylase 3 (Homo sapiens, UniProt O15379). As to the kind of experiment: Inhibition of recombinant HDAC3.
Chain of Histone deacetylase 3 (O15379 whole entry): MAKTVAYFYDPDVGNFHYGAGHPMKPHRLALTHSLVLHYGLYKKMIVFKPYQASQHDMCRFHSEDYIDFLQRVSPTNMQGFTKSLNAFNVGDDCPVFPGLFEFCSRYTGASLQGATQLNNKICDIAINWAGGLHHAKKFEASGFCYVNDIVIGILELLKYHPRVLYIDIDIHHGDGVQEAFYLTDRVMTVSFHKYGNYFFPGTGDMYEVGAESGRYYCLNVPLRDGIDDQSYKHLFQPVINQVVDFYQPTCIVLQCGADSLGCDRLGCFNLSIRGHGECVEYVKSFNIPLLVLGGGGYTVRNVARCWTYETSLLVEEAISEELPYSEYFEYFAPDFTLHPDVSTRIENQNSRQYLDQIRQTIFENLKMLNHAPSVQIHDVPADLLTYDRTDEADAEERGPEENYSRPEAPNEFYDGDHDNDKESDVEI
The subject of assay [9] is RKO. In words: Induction of human histone H3 hyperacetylation in RKO cells at 1 to 3 uM. It counts as functional, cell-based.
Assay [10] is described as follows: Cytotoxicity against human U87MG cells. Type of assay: functional, cell-based, U-87MG ATCC. The following applies: U-87 MG.
The test system of a further assay is HCT-15. As to the kind of experiment: Cytotoxicity against human HCT15 cells. It counts as functional, cell-based.
The subject of the next assay is MDA-MB-468. In words: Cytotoxicity against human MDA-MB-468 cells. It counts as functional, cell-based.
Another assay concerns CAL-27. As to the kind of experiment: Cytotoxicity against human Cal27 cells. Type of assay: functional, cell-based.
A further assay is described as follows: cells. It counts as functional, cell-based. As to conditions: Homo sapiens, WM 266-4.
Another assay concerns MCF7. As to the kind of experiment: Cytotoxicity against human MCF7 cells. Type of assay: functional, cell-based.
The subject of assay [11] is A549. As to the kind of experiment: Cytotoxicity against human A549 cells. Type of assay: functional, cell-based.
The next assay deals with PC-3. In words: Cytotoxicity against human PC3 cells. Type of assay: functional, cell-based.
In assay [12] the test system is RKO. In words: Inhibition of histone-H3S phosphorylation in human RKO cells at 10 uM. It counts as cell-based.
In another assay the target is Histone deacetylase 8 (Homo sapiens, UniProt Q9BY41). In words: Inhibition of recombinant HDAC8.
Chain of Histone deacetylase 8 (Q9BY41 whole entry): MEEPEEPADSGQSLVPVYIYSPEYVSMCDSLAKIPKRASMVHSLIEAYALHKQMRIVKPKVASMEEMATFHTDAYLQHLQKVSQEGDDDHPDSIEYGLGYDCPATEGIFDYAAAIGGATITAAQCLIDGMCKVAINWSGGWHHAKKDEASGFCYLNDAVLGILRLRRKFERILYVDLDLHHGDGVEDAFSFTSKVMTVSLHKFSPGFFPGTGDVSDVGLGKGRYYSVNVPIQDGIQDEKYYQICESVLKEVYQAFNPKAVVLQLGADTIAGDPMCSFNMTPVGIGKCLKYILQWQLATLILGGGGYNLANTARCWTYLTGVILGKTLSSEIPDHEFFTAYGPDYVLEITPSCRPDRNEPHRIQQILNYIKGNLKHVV
For another assay, the system named is HCT-116. In words: Cytotoxicity against human HCT116 cells. Type of assay: functional, cell-based.
The next assay concerns SK-BR-3. As to the kind of experiment: Cytotoxicity against human SKBR3 cells. It counts as functional, cell-based.
Assay [13] is described as follows: Cytotoxicity against human Hec-1-A cells. Type of assay: functional, cell-based.
A further assay concerns EOL1. In words: Cytotoxicity against human EOL1cells. It counts as functional, cell-based.
The test system of another assay is A-431. As to the kind of experiment: Cytotoxicity against human A431 cells. It counts as functional, cell-based.

SMILES strings stand for the structures. Calls of active or inactive are those of the source. The rule behind the calls is not given here.

Chain of Histone deacetylase 1 (Q13547 whole entry): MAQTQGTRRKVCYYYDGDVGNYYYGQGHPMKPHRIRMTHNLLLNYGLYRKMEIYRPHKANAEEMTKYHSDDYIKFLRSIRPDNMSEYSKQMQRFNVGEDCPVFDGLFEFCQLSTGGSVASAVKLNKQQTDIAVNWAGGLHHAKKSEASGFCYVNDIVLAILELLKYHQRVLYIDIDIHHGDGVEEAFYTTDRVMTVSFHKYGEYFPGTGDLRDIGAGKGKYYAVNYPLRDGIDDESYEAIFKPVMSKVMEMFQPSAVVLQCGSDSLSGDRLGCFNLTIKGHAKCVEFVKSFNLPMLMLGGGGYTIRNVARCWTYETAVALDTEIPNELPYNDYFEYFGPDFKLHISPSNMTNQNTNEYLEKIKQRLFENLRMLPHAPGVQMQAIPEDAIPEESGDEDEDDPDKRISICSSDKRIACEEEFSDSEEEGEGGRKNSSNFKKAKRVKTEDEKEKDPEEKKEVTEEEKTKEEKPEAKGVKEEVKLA
Description for Histone deacetylase 1: Inhibition of recombinant HDAC1 in HeLa cells
Description for cells: Cytotoxicity against human WM 266-4 cells

The IC50 is the concentration needed to halve the response being measured. As a reminder, the EC50 is the concentration needed to bring the measured effect to its halfway point. Regarding `O=C(/C=C/c1ccc2c(c1)cc(C(=O)c1ccccc1)n2S(=O)(=O)c1ccccc1)NO`, the IC50 is 200 nM on Histone deacetylase 1, 90 nM at Histone deacetylase [2] and 2880 nM in the assay on HeLa. For the same molecule, the EC50 at Histone deacetylase [1] is 2670 nM.
In the case of `O=C(/C=C/c1ccc(C(=O)c2cc3ccccc3[nH]2)cc1)NO`, the figures for the IC50 on Histone deacetylase 1, at Histone deacetylase [2] and with HeLa were 410 nM, 310 nM and 4750 nM, respectively. The EC50 on Histone deacetylase [1] turned out to be 2970 nM.
Regarding `O=C(/C=C/c1ccc(C(=O)c2cc3ccccc3n2S(=O)(=O)c2ccccc2)cc1)NO`, the IC50 is 690 nM against Histone deacetylase 1, 270 nM against Histone deacetylase [2] and 5420 nM in the assay on HeLa. The EC50 at Histone deacetylase [1] was found to be 5700 nM.
For `O=C(/C=C/c1ccc2[nH]c(C(=O)c3ccccc3)cc2c1)NO`, the figures for the IC50 on Histone deacetylase 1, against Histone deacetylase [2] and in the assay with HeLa were 250 nM, 340 nM and 3970 nM, respectively. Further, the EC50 at Histone deacetylase [1] was determined as 3770 nM.
As to `O=C(CCCCCCC(=O)Nc1ccccc1)NO` [VORINOSTAT], the IC50 amounted to 2200 nM with SK-OV-3, 2300 nM with SAOS-2 and 2200 nM in the assay on MDA-MB-231.
`O=C(/C=C/c1cccc(C(=O)c2cc3ccccc3[nH]2)c1)NO`: the outcome in the assay with A549 [3], in the assay on 549, with A549 [8], in the assay with RKO [9] and in the assay with RKO [12] was Active. The IC50 in the assay with NCI turned out to be 330 nM; in the assay on ASPC1, 3900 nM; in assay [4], 1050 nM; with A2780, 340 nM; with CCRF-CEM [5], 250 nM; in the assay with NCI-H460, 260 nM. Also, the IC50 with K562 turned out to be 170 nM; against Histone deacetylase 1 it was 31 nM; in the assay on CCRF-CEM [6] it was 200 nM; in [7], 2570 nM; at Histone deacetylase 3, 50 nM; in the assay with SK-OV-3 it was 900 nM. In addition, the 50% inhibitory concentration (IC50) in assay [10] amounted to 1000 nM; in the assay with HCT-15, 770 nM; with MDA-MB-468, 550 nM; in the assay with CAL-27 it was 750 nM; in “cells”, 310 nM; in the assay with SAOS-2, 1000 nM. Besides, the IC50 in the assay with MCF7 turned out to be 1900 nM; in the assay with A549 [11] it was 970 nM; in the assay on PC-3 it was 210 nM; against Histone deacetylase [2], 39 nM; on Histone deacetylase 8, 32 nM; in the assay on HCT-116, 360 nM. The IC50 in the assay with HeLa came to 850 nM; with SK-BR-3 it was 530 nM; in the assay on MDA-MB-231, 900 nM; in assay [13] it was 620 nM; in the assay with EOL1, 73 nM; in the assay on A-431, 600 nM. Further, the EC50 on Histone deacetylase [1] amounted to 1300 nM.
Turning to `COc1cccc(C(=O)c2cc3cc(/C=C/C(=O)NO)ccc3o2)c1`, the IC50 was determined as 950 nM at Histone deacetylase 1, 650 nM at Histone deacetylase [2] and 4110 nM in the assay with HeLa. Moreover, the EC50 at Histone deacetylase [1] is 4100 nM.
In the same order, the values of `COc1cccc(C(=O)c2cc3cc(/C=C/C(=O)NO)ccc3[nH]2)c1` are 300 nM, 330 nM, 2960 nM and 2570 nM.
For the molecule `O=C(/C=C/c1cccc(C(=O)c2cc3ccccc3o2)c1)NO`, the outcome in the assay on A549 [3], with 549, in the assay on A549 [8], in the assay with RKO [9] and in the assay on RKO [12] was Active. Besides, the IC50 in the assay on NCI was 190 nM; in the assay with ASPC1 it was 3500 nM; in assay [4], 960 nM; in the assay on A2780, 350 nM; with CCRF-CEM [5], 240 nM; in the assay with NCI-H460, 250 nM. The IC50 came out at 150 nM in the assay on K562; 52 nM against Histone deacetylase 1; 180 nM with CCRF-CEM [6]; 3690 nM in assay [7]; 79 nM at Histone deacetylase 3; 740 nM in the assay on SK-OV-3. Moreover, the IC50 was determined as 1100 nM in assay [10]; 740 nM in the assay with HCT-15; 500 nM in the assay with MDA-MB-468; 660 nM with CAL-27; 310 nM in the assay “cells”; 920 nM in the assay with SAOS-2. Moreover, the IC50 amounted to 1300 nM in the assay on MCF7; 770 nM in the assay on A549 [11]; 160 nM in the assay with PC-3; 57 nM against Histone deacetylase [2]; 79 nM at Histone deacetylase 8; 360 nM in the assay with HCT-116. In addition, the IC50 in the assay with HeLa was found to be 680 nM; with SK-BR-3 it was 310 nM; in the assay with MDA-MB-231 it was 730 nM; in assay [13] it was 470 nM; with EOL1, 49 nM; in the assay on A-431, 590 nM. Besides, the EC50 on Histone deacetylase [1] worked out at 290 nM.
Consider `COc1ccc2[nH]c(C(=O)c3ccc(/C=C/C(=O)NO)cc3)cc2c1`, for which the values for the IC50 against Histone deacetylase 1, against Histone deacetylase [2] and in the assay with HeLa were 320 nM, 280 nM and 3440 nM, respectively. Also, at Histone deacetylase [1], the EC50 was 4270 nM.
In the same order, the values of `COc1cccc(C(=O)c2cc3cc(/C=C/C(=O)NO)ccc3n2S(=O)(=O)c2ccccc2)c1` are 230 nM, 120 nM, 3340 nM and 2780 nM.
The matching figures for `O=C(/C=C/c1ccc(C(=O)c2cc3ccccc3o2)cc1)NO`: 520 nM, 450 nM, 2600 nM and 1100 nM.
In the same order, the values of `O=C(/C=C/c1cccc(C(=O)c2cc3ccccc3n2S(=O)(=O)c2ccccc2)c1)NO` are 89 nM, 34 nM, 1730 nM and 1000 nM.
Turning to `COc1ccc2c(c1)cc(C(=O)c1ccc(/C=C/C(=O)NO)cc1)n2S(=O)(=O)c1ccccc1`, the IC50 was determined as 880 nM on Histone deacetylase 1, 260 nM on Histone deacetylase [2] and 5420 nM in the assay with HeLa. At Histone deacetylase [1], the EC50 turned out to be 6900 nM.
The matching figures for `O=C(/C=C/c1ccc2oc(C(=O)c3ccccc3)cc2c1)NO`: 1200 nM, 830 nM, 5610 nM and 2650 nM.
In the same order, the values of `COc1cc(C(=O)c2cc3cc(/C=C/C(=O)NO)ccc3o2)cc(OC)c1OC` are 1100 nM, 1000 nM, 5770 nM and 7500 nM.
